Experimental data: patent publication US7550558B2, “Antimicrobial peptides and methods for identifying and using such peptides” (priority 2001, dated 2009)
No end group written: not given here.

Columns and labels:
[1] = literature; cited from earlier work

Sequence | cytotoxic property [1] | hemolytic property [1] | concentrations with no antibacterial effect (MIC) (Micrococcus luteus) [µg/mL] | minimum inhibitory concentration (MIC) (Candida albicans) [µg/mL] | minimum inhibitory concentration (MIC) (Aspergillus nidulans) [µg/mL] | concentrations with no antibacterial effect (MIC) (Staphylococcus aureus) [µg/mL] | concentrations with no antibacterial effect (MIC) (Escherichia coli) [µg/mL]
ILPWLWPWWPWRR [indolicidin] | cytotoxic | hemolytic | – | – | – | – | –
VRRFPWWWPFLRR [tritrpticin] | cytotoxic | hemolytic | – | – | – | – | –
HPLKQYWWRPSI [PW2, HPLKQYWWRPSI] | – | – | > 200 | 12.5 to 25 | 25 to 50 | > 200 | > 200
